Some results are limits rather than exact numbers.

One data set deals with rgRSV224 virus. In words: Antiviral activity: rgRSV224 (GFP) replication in HeLa cells. To be noted: human respiratory syncytial virus, HeLa, 72 h, read-out: RSV HELA EC50 (μM), rgRSV224 virus (MOI=1), HeLa cells, GFP expression three days post-virus exposure. The format is cell-based, respiratory syncytial virus (RSV).
The nature of a further data set: in vitro. The following applies: human, TOX HELA CC50 (μM).

Description for in vitro: Black 384-well clear-bottom microtiter plates (Corning, Amsterdam, The Netherlands) were filled via acoustic drop ejection using the echo liquid handler (Labcyte, Sunnyvale, Calif.). 200 nL of compound stock solutions (100% DMSO) were transferred to the assay plates. 9 serial 4-fold dilutions of compound were made, creating per quadrant the same compound concentration. The assay was initiated by adding 10 μL of culture medium to each well (RPMI medium without phenol red, 10% FBS-heat inactivated, 0.04% gentamycin (50 mg/mL). All addition steps are done by using a multidrop dispenser (Thermo Scientific, Erembodegem, Belgium). Next, rgRSV224 virus (MOI=1) diluted in culture medium was added to the plates. rgRSV224 virus is an engineered virus that includes an additional GFP gene (Hallak L K, Spillmann D, Collins P L, Peeples M E. Glycosaminoglycan sulfation requirements for respiratory syncytial virus infection; Journal of virology (2000), 74(22), 10508-13) and was in-licensed from the NIH (Bethesda, Md., USA). Finally, 20 μL of a HeLa cell suspension (3,000 cells/well) were plated. Medium, virus- and mock-infected controls were included in each test. The wells contain 0.05% DMSO per volume. Cells were incubated at 37° C. in a 5% CO2 atmosphere. Three days post-virus exposure, viral replication was quantified by measuring GFP expression in the cells by an in house developed MSM laser microscope (Tibotec, Beerse, Belgium). The EC50 was defined as the 50% inhibitory concentration for GFP expression. In parallel, compounds were incubated for three days in a set of white 384-well microtiter plates (Corning) and the cytotoxicity of compounds in HeLa cells was determined by measuring the ATP content of the cells using the ATPlite kit (Perkin Elmer, Zaventem, Belgium) according to the manufacturer's instructions. The CC50 was defined as the 50% concentration for cytotoxicity.

In general, EC50 refers to the concentration at which the effect is half-maximal. What is called CC50 is the concentration that lowers cell viability or growth by half. High values mean better tolerance by the cells, low ones harm at low concentration. For the molecule `C[C@@H]1c2ccsc2CCN1C(=O)c1cc(C2CC2)n2nc(-c3ccc(N4CC[C@@](C)(CC(N)=O)C4)cc3F)cc2n1` (single isomer, unassigned) [Compound 26, 2-[(3*S)-1-(4-{7-Cyclopropyl-5-[(4*R)-4-methyl-4,5,6,7-tetrahydro-thieno[3,2-c]pyridine-5-carbonyl]pyrazolo[1,5-a]pyrimidin-2-yl}-3-fluorophenyl)-3-methylpyrrolidin-3-yl]acetamide], the EC50 in the data set with rgRSV224 virus was found to be 0.02 µM. Also, in the data set “in vitro”, the CC50 at 3 days worked out at 29.6 µM.
In the same order, the values of `CNC(=O)O[C@H]1CCN(c2ccc(-c3cc4nc(C(=O)N5CCc6ccccc6[C@H]5C)cc(C5CC5)n4n3)c(F)c2)C1` [Compound 16, (3S)-1-(4-{7-Cyclopropyl-5-[(1R)-1-methyl-1,2,3,4-tetrahydroisoquinoline-2-carbonyl]-pyrazolo[1,5-a]pyrimidin-2-yl}-3-fluorophenyl)pyrrolidin-3-yl N-methylcarbamate] are 0.11 µM and greater than 100 µM.
Turning to `C[C@@H]1c2ccccc2CCN1C(=O)c1cc(C2CC2)n2nc(-c3ccc(N4CC(CC(N)=O)C4)nc3F)cc2n1` [Compound 92, 2-[1-(5-{7-Cyclopropyl-5-[(1R)-1-methyl-1,2,3,4-tetrahydroisoquinoline-2-carbonyl]-pyrazolo[1,5-a]pyrimidin-2-yl}-6-fluoropyridin-2-yl)azetidin-3-yl]acetamide], the EC50 in the data set on rgRSV224 virus amounted to 0.071 µM. The same molecule came in with a CC50 at 3 days in “in vitro” of 41.5 µM.
For the molecule `C[C@@H]1c2ccccc2CCN1C(=O)c1cc(C2CC2)n2nc(-c3ccc(N4CCCC(C(N)=O)C4)cc3F)cc2n1` (stereo partly drawn) [Compound 69, 1-(4-{7-Cyclopropyl-5-[(1R)-1-methyl-1,2,3,4-tetrahydroisoquinoline-2-carbonyl]-pyrazolo[1,5-a]pyrimidin-2-yl}-3-fluorophenyl)piperidine-3-carboxamide], in the data set on rgRSV224 virus, the EC50 was 0.059 µM. In the data set “in vitro”, this molecule returned a CC50 at 3 days of 33.2 µM.
In the same order, the values of `C[C@@H]1c2ccccc2CCN1C(=O)c1cc(C2CC2)n2nc(-c3ccc(N4CC[C@H](C(=O)NS(C)(=O)=O)C4)nc3F)cc2n1` [Compound 51, (3S)-1-(5-{7-Cyclopropyl-5-[(1R)-1-methyl-1,2,3,4-tetrahydroisoquinoline-2-carbonyl]-pyrazolo[1,5-a]pyrimidin-2-yl}-6-fluoropyridin-2-yl)-N-methanesulfonylpyrrolidine-3-carboxamide] are 0.131 µM and 67.9 µM.
With `C[C@@H]1c2ccccc2CCN1C(=O)c1cc(C2CC2)n2nc(-c3ccc(N4CC[C@H](NS(C)(=O)=O)C4)cc3F)cc2n1` [Compound 12, N-[(3S)-1-(4-{7-Cyclopropyl-5-[(1R)-1-methyl-1,2,3,4-tetrahydroisoquinoline-2-carbonyl]pyrazolo[1,5-a]pyrimidin-2-yl}-3-fluorophenyl)pyrrolidin-3-yl]methane-sulfonamide], in the data set with rgRSV224 virus, the EC50 is 0.041 µM. In the data set “in vitro”, this molecule had a CC50 at 3 days greater than 100 µM.
Regarding `CNC(=O)O[C@@H]1CCN(c2ccc(-c3cc4nc(C(=O)N5CCc6ccccc6[C@H]5C)cc(C5CC5)n4n3)c(F)c2)C1` [Compound 15, (3R)-1-(4-{7-Cyclopropyl-5-[(1R)-1-methyl-1,2,3,4-tetrahydroisoquinoline-2-carbonyl]-pyrazolo[1,5-a]pyrimidin-2-yl}-3-fluorophenyl)pyrrolidin-3-yl N-methylcarbamate], in the data set with rgRSV224 virus, the half-maximal effective concentration (EC50) was found to be 0.1 µM. In addition, the 50% cytotoxic concentration (CC50) at 3 days in “in vitro” is greater than 100 µM.
In the same order, the values of `C[C@@H]1c2ccccc2CCN1C(=O)c1cc(C2CC2)n2nc(-c3ccc(N4C[C@@H](O)[C@H](O)C4)cc3F)cc2n1` [Compound 100, (7-cyclopropyl-2-(4-((3R,4R)-3,4-dihydroxypyrrolidin-1-yl)-2-fluorophenyl)pyrazolo[1,5-a]pyrimidin-5-yl)((R)-1-methyl-3,4-dihydroisoquinolin-2(1H)-yl)methanone] are 0.011 µM and 23.8 µM.
The like results for `C[C@@H]1c2ccccc2CCN1C(=O)c1cc(C2CC2)n2nc(-c3ccc(N4CC[C@H](OC(N)=O)C4)cc3F)cc2n1` [Compound 78, (3S)-1-(4-{7-Cyclopropyl-5-[(1R)-1-methyl-1,2,3,4-tetrahydroisoquinoline-2-carbonyl]pyrazolo[1,5-a]pyrimidin-2-yl}-3-fluorophenyl)pyrrolidin-3-yl carbamate] were, in that order, 0.055 µM and 47.3 µM.
For `C[C@@H]1c2ccsc2CCN1C(=O)c1cc(C2CC2)n2nc(-c3ccc(N4CC[C@](C)(C(N)=O)C4)cc3F)cc2n1` (single isomer, unassigned) [Compound 45, (3*S)-1-(4-{7-Cyclopropyl-5-[(4*R)-4-methyl-4,5,6,7-tetrahydro-thieno[3,2-c]pyridine-5-carbonyl]pyrazolo[1,5-a]pyrimidin-2-yl}-3-fluorophenyl)-3-methylpyrrolidine-3-carboxamide], in the data set on rgRSV224 virus, the EC50 turned out to be 0.02 µM. In “in vitro”, this molecule yielded a 50% cytotoxic concentration (CC50) at 3 days of 31.4 µM.
The like results for `C[C@@H]1c2ccccc2CCN1C(=O)c1cc(C2CC2)n2nc(-c3ccc(N4CCC(C#N)C4)cc3F)cc2n1` (stereo partly drawn) [Compound 1, 1-(4-{7-Cyclopropyl-5-[(1R)-1-methyl-1,2,3,4-tetrahydroisoquinoline-2-carbonyl]-pyrazolo[1,5-a]pyrimidin-2-yl}-3-fluorophenyl)pyrrolidine-3-carbonitrile] were, in that order, 0.085 µM and greater than 100 µM.
In the same order, the values of `C[C@@H]1c2ccccc2CCN1C(=O)c1cc(C2CC2)n2nc(-c3ccc(N4C[C@H](O)[C@H](O)[C@H]4CO)cc3F)cc2n1` [Compound 98] are 0.039 µM and 47.6 µM.
The like results for `C[C@@H]1c2ccsc2CCN1C(=O)c1cc(C2CC2)n2nc(-c3ccc(N4CC[C@H](C(C)(C)C(N)=O)C4)cc3F)cc2n1` (single isomer, unassigned) [Compound 29, 2-[(3*R)-1-(4-{7-Cyclopropyl-5-[(4*R)-4-methyl-4,5,6,7-tetrahydro-thieno[3,2-c]pyridine-5-carbonyl]pyrazolo[1,5-a]pyrimidin-2-yl}-3-fluorophenyl)pyrrolidin-3-yl]-2-methyl-propanamide] were, in that order, 0.045 µM and 43.7 µM.
In the case of `CNS(=O)(=O)C1CCN(c2ccc(-c3cc4nc(C(=O)N5CCc6ccccc6[C@H]5C)cc(C5CC5)n4n3)c(F)c2)C1` (stereo partly drawn) [Compound 21, 1-(4-{7-Cyclopropyl-5-[(1R)-1-methyl-1,2,3,4-tetrahydroisoquinoline-2-carbonyl]-pyrazolo[1,5-a]pyrimidin-2-yl}-3-fluorophenyl)-N-methylpyrrolidine-3-sulfonamide], in the data set on rgRSV224 virus, the EC50 worked out at 0.045 µM. This molecule also displayed a CC50 at 3 days in “in vitro” greater than 100 µM.
The like results for `C[C@@H]1c2ccccc2CCN1C(=O)c1cc(-c2ccc(F)cc2)n2nc(-c3ccc(N4CC[C@H](C(N)=O)C4)cc3F)cc2n1` [Compound 60, (3S)-1-{3-Fluoro-4-[7-(4-fluorophenyl)-5-[(1R)-1-methyl-1,2,3,4-tetrahydroisoquinoline-2-carbonyl]pyrazolo[1,5-a]pyrimidin-2-yl]phenyl}pyrrolidine-3-carboxamide] were, in that order, 0.029 µM and 41.3 µM.
Regarding `C[C@@H]1c2ccccc2CCN1C(=O)c1cc(C2CC2)n2nc(-c3c(O)cc(N4CC[C@H](C(N)=O)C4)cc3F)cc2n1` [Compound 105, (S)-1-(4-(7-cyclopropyl-5-((R)-1-methyl-1,2,3,4-tetrahydroisoquinoline-2-carbonyl)pyrazolo[1,5-a]pyrimidin-2-yl)-3-fluoro-5-hydroxyphenyl)pyrrolidine-3-carboxamide], in the data set on rgRSV224 virus, the EC50 came to 0.025 µM. Moreover, the CC50 at 3 days in “in vitro” was 83.6 µM.
With `C[C@@H]1c2ccccc2CCN1C(=O)c1cc(C2CC2)n2nc(-c3ccc(N4C[C@H](O)C(F)(F)C4)cc3F)cc2n1` [Compound 97, (7-cyclopropyl-2-(4-((S)-3,3-difluoro-4-hydroxypyrrolidin-1-yl)-2-fluorophenyl)pyrazolo[1,5-a]pyrimidin-5-yl)((R)-1-methyl-3,4-dihydroisoquinolin-2(1H)-yl)methanone], in the data set on rgRSV224 virus, the EC50 came to 0.053 µM. The molecule also gave a CC50 at 3 days in the data set “in vitro” of 26.1 µM.
The like results for `C[C@@H]1c2ccsc2CCN1C(=O)c1cc(C2CC2)n2nc(-c3ccc(N4CC[C@](C)(CC(N)=O)C4)cc3F)cc2n1` (single isomer, unassigned) [Compound 25, 2-[(3*R)-1-(4-{7-Cyclopropyl-5-[(4*R)-4-methyl-4,5,6,7-tetrahydro-thieno[3,2-c]pyridine-5-carbonyl]pyrazolo[1,5-a]pyrimidin-2-yl}-3-fluorophenyl)-3-methylpyrrolidin-3-yl]acetamide] were, in that order, 0.023 µM and 29.6 µM.
The like results for `C[C@@H]1c2ccccc2CCN1C(=O)c1cc(C2CC2)n2nc(-c3ccc(N4CC[C@H](C(=O)NC#N)C4)cc3F)cc2n1` [Compound 39, (3S)—N-Cyano-1-(4-{7-cyclopropyl-5-[(1R)-1-methyl-1,2,3,4-tetrahydroisoquinoline-2-carbonyl]pyrazolo[1,5-a]pyrimidin-2-yl}-3-fluorophenyl)pyrrolidine-3-carboxamide] were, in that order, 0.291 µM and 53.1 µM.
In the same order, the values of `C[C@@H]1c2ccccc2CCN1C(=O)c1cc(C2CC2)n2nc(-c3ccc(N4CC[C@@H](OC(N)=O)C4)nc3F)cc2n1` [Compound 85, (3R)-1-(5-{7-Cyclopropyl-5-[(1R)-1-methyl-1,2,3,4-tetrahydroisoquinoline-2-carbonyl]-pyrazolo[1,5-a]pyrimidin-2-yl}-6-fluoropyridin-2-yl)pyrrolidin-3-yl carbamate] are 0.152 µM and greater than 100 µM.
As to `C[C@@H]1c2ccsc2CCN1C(=O)c1cc(C2CC2)n2nc(-c3ccc(N4CC[C@H](C(=O)NS(C)(=O)=O)C4)cc3F)cc2n1` (single isomer, unassigned) [Compound 41, (3S)-1-(4-{7-Cyclopropyl-5-[(4*R)-4-methyl-4,5,6,7-tetrahydro-thieno[3,2-c]pyridine-5-carbonyl]pyrazolo[1,5-a]pyrimidin-2-yl}-3-fluorophenyl)-N-methanesulfonylpyrrolidine-3-carboxamide], in the data set with rgRSV224 virus, the 50% effective concentration (EC50) amounted to 0.036 µM. In the data set “in vitro”, this molecule had a CC50 at 3 days of 51.1 µM.

The values above are taken from patent US11339165B2, “Pyrazolopyrimidines having activity against the respiratory syncytial virus (RSV)” (priority 2017, dated 2022).
